Data from patent USRE42072E1, “Compositions and methods for enhancing receptor-mediated cellular internalization” (The Penn State Research Foundation, priority 1996, dated 2011).

Key:
[1] = test system: luteinizing hormone (LH); test: in vivo; assay type: in vivo, sheep; conditions: for animals responded: vaginal 200 μg; for LH response: vaginal, progesterone and estradiol treatment
Experimental: (§1) FIG. 3 is a graph showing the percent of responding animals to LHRH analog vaginal delivery as a function of (simulated) stage of the estrous cycle. Stage of estrous cycle was simulated by delivering estradiol for two weeks to ovariectomized ewes (anestrus phase), followed by two weeks of delivery of estradiol and progesterone (mid-luteal phase), followed by a period of 48 h after progesterone withdrawal (follicular phase). In each simulated phase, 10, 40, or […] of LHRH analog were delivered vaginally in 5 ml of aqueous or methocel solution to groups of six ewes. Responding animals were defined as those treated animals with LH serum values exceeding 3 ng/ml for two or more sampling points, with sampling times of 0, 30, 60, […], 120, 180, 240, 360, and 480 min.
(§2) FIG. 4 is a graph showing serum LH response to vaginal administration of LHRH analog. LHRH analog-was administered vaginally in ovariectomized ewes during the simulated mid-luteal phase in 5 ml of aqueous or methocel (1.75% methyl cellulose) solution (40 μg dose). Standard errors are based on n=6.
(§3) It was therefore hypothesized that the responsiveness of animals to LHRH analog vaginal delivery varied with steroid-dependent hormone receptor expression (estrous cycle). To test this hypothesis, a group of ewes was ovariectomized and administered estradiol and progesterone to mimic the animals' estrous cycle. Ewes were pre-medicated with atropine (0.02 mg/lb) and Telazol (R) (2 mg/lb) intramuscularly. After induction of recumbency, thipental (5% in water) was administered intravenously to induce sufficient anesthesia to permit endotracheal intubation. Anesthesia was maintained using halothane in oxygen at 1-2 liters per minute. Ovaries were removed through a mid-line incision.
(§4) Within 24 h of surgery, a 1.5 cm silicone implant of estradiol (Compudose 200, Elanco, Ind.) was inserted into the left ear to provide a basal level of estradiol. The anestrus state was simulated after two weeks of estradiol delivery following surgery. Experiments were performed in the simulated anestrus state (i.e. two weeks after surgery) as described above. Immediately following the last blood sample, a progesterone-releasing intravaginal device (CIDR-G, Carter Hold Harvey Plastic Products, Hamilton, New Zealand) was inserted.
(§5) In a parallel study, an alternative progesterone-releasing device (Snychro-Mate-B, Sanofi Animal Health, Overland Park, Kans.) was placed in the left ear. The mid-luteal phase was simulated after permitting a 10 day intravaginal or ear progesterone treatment. Experiments were performed in the simulated mid-luteal phase as described above.
(§6) The progesterone-releasing (vaginal or ear) implant was removed and the follicular phase was simulated by allowing a time lapse of 48 h. Experiments were performed in the follicular phase as described above.
(§7) Next, 200 μg of leuprolide acetate in 5 ml of aqueous solutions was vaginally administered during simulated anestrus (estradiol only), mid-luteal (estradiol and progesterone), and follicular (48 h after progesterone withdrawal) phases, as described above. […] In contrast, 100% of animals responded when treated with progesterone and estradiol (FIG. 3).

[2] = in vivo; assay type: in vivo, sheep; conditions: female, sheep, in vivo, 40 ug, bioavailability
Experimental: as §1, §2, §3, §4, §5, §6, §7

[3] = Bioavailability of peptides after vaginal administration to sheep, relative to intravenous injection; conditions: in vivo
Experimental: (§8) First, a peptide that undergoes receptor-mediated transport across the vaginal epithelium was identified by studying the permeation of peptides of varying molecular weight in a sheep model. Peptides were delivered vaginally to sheep in 5 ml of aqueous or methocel solutions with typical peptide concentrations of 10-40 μg/ml. A group of 18 intact ewes were utilized for these experiments. For each study, sheep were randomly assigned to a treatment group. In GnRH studies where each animal received all possible treatment combinations, each animal was assigned to an initial treatment group at random and subsequently randomly to each of the remaining treatment groups. A minimum of 5 days (typically 10 or more days) was allowed between experiments on a given animal, to provide sufficient time for complete recovery of pituitary responsiveness to the highest doses of the GnRH agonist used A 16G 150 mm jugular catheter (Abbocath-T, Abbott Laboratories, Chicago, Ill.) was inserted and blood samples collected at 0, 30, 60, 90, 120, 180, 240, 360, 480 and 1440 min. after treatment. Luteinizing hormone (LH) levels were determined.
(§9) LHRH analog was placed in methyl cellulose solutions (“methocels”) of varying apparent viscosity. […] First, 200 μg of leuprolide acetate in 5 ml of aqueous solutions with melhocel weight concentrations varying between 0% and 3.0% were vaginally administered.
The enhanced bioavailability of LHRH also coincides with a longer-term release into the systemic circulation at the optimal methocel concentrations. […] To test this hypothesis, the efficacy of a second, physically cross-linked hydrogel that was believed would not enhance endocytosis, but whose apparent viscosity (in the range of hydrogel concentrations 0.0-5.5%) was similar to that of the methocels (in the range 0.0-3.0%) was examined.

[4] = test system: luteinizing hormone (LH); test: Serum LH response to iv injection and vaginal administration of LHRH analog in intact ewes; assay type: in vivo, sheep
Experimental: FIGS. 1a and 1b are graphs showing serum responses to iv injection and vacinal administration of vasopressin and leuprolide acetate. […] Vasopressin was injected intravenously ([…]) through a jugular catheter. The peptide was delivered vaginally in 5 ml of aqueous solution (200 g does). Standard errors are based on n=6. […] LHRH analog was injected intravenously ([…]) into through a jugular catheter. The peptide was delivered vaginally in 5 ml of aqueous solution (200 g dose). Standard errors are based on n=6.
FIG. 2 is a graph showing bioavailability of LHRH analog following vaginal administration as a function of methyl cellulose (“methocel”) concentration. Bioavailability is determined relative to intravenous injection (FIG. 1b) and is based on LH response. The administered dose of LHRH analog was 200 g in 5 ml of methocel solution. Results are based on animals that responded to vaginal treatment, with standard error computed on the basis of n≧4 In all cases, less than 50% of treated animals responded with LH levels greater than 3 ng/ml for more than one sampling point, with sampling times of 0, 30, 60, 90, 120, 180, 240, 360, and 480 min.
as §8, §9

With CCNC(=O)[C@@H]1CCCN1C(=O)[C@H](CCCNC(=N)N)NC(=O)[C@H](CC(C)C)NC(=O)[C@@H](CC(C)C)NC(=O)[C@H](Cc1ccc(O)cc1)NC(=O)[C@H](CO)NC(=O)[C@H](Cc1c[nH]c2ccccc12)NC(=O)[C@H](Cc1c[nH]cn1)NC(=O)[C@@H]1CCC(=O)N1 [leuprolide acetate] the bioavailability ([1]; female, sheep, in vivo, 40 ug) was 10%, the animals responded ([1]; treated with progesterone and estradiol (FIG. 3)) was 100% and the animals responded ([1]; with or without 1.75% methocel, estrogen replacement without progesterone) was “less than 50%”. The LH response ([1]; highest dose, with and without methocel) was “saturated”, the LH response ([1]; lowest dose (10 μg)) was “undetectable” and the bioavailability [2] was 6%. The bioavailability ([3]; female, sheep) was 2.6 ± 0.9%, the “duration of delivery as a function of control gel concentration” value [3] was “diminished with increasing control gel concentration” and the “bioavailability as a function of control hydrogel concentration” value ([3]; sheep) was “diminished with increasing concentration of the hydrogel”. For the same compound, the “bioavailability as a function of methocel concentration” value ([3]; sheep, 200 ug) was “increase as methocel concentration increased to 1.75%, then to fall at higher methocel concentration”, the “luteinizing hormone (LH) response” value ([4]; intravenous injection (FIG. 1b)) was “significant” and the “luteinizing hormone (LH) response” value ([4]; vaginal administration, aqueous solution (FIG. 1b)) was “significant”. The “animals showing little or no response” value ([4]; vaginal administration, intact ewes, bimodal distribution) was “approximately 30%” and the “treated animals that responded with LH levels greater than 3 ng/ml for more than one sampling point” value ([4]; vaginal, 5 ml methocel solution, intact ewes, all methocel concentrations (FIG. 2)) was “less than 50%”.
